{"source": "patent US20250145715A1", "about": "“B7-H3 TARGETING FUSION PROTEINS AND METHODS OF USE THEREOF” (GT Biopharma, Inc., priority 2021, published 2025)", "type_in_all_cases": "cell-based, human", "key": {"PC-3 spheroids": {"tested_on": "PC-3 spheroids", "experiment": "PC-3 spheroid assay", "from_the_text": "FIG. 18 is a graph illustrating the size of PC-3 spheroids over time.\nFIG. 19 is a graph illustrating the size of PC-3 spheroids over time."}, "PC-3 cells": {"tested_on": "PC-3 cells", "experiment": "PC3 standard IncuCyte real-time killing assay", "settings": "IncuCyte platform", "method": "FIG. 16 is a graph illustrating a PC3 standard IncuCyte Assay.\nTumor killing was evaluated in real-time using the IncuCyte platform. […] Caspase-3/7 green dye (Sartorious, Ann Arbor, MI, USA) was added to pick up dying cells that have not yet lost NuclightRed fluorescence. Noted treatments were then added at a 30 nM concentration, and the plate was placed in an IncuCyte ZOOM® platform housed inside a cell incubator at 37° C./5% C02. Images from three technical replicates were taken every 15 min for 48 h using a 4× objective lens and then analyzed using IncuCyte™ Basic Software v2018A (Sartorious). Graphed readouts represent percentage live OVCAR8 targets (NuclightRed+Caspase-3/7−), normalized to live targets alone at the starting (0 h) time point."}, "[1]": {"tested_on": "OVCAR5 ovarian cancer cells", "experiment": "NK cell CD107a / IFNγ flow cytometry against OVCAR5", "settings": "30 nM, E:T 2:1, 4 hrs; vs no treatment and rhIL-15 alone", "method": "Healthy donor or ovarian cancer PBMC cells were incubated with ovarian tumor targets at 2:1 E:T ratio for 4 hrs with 30 nM TriKE or control condition. FIG. 30A is a graph illustrating pooled proportion of NK cells from healthy donors expressing CD107a+ (degranulation) against OVCAR8 targets (N=8). FIG. 30B is a graph illustrating pooled proportion of NK cells from healthy donors expressing IFNγ cytokine production against OVCAR8 targets (N=8). FIG. 30C is a graph illustrating pooled proportion of NK cells from healthy donors expressing CD107a+ (degranulation) against OVCAR3 targets (N=4). […] FIG. 30I is a graph illustrating that tumor killing was evaluated using IncuCyte imaging assay. […] The percentage of Live (Nuclight Red+Caspase 3/7−) tumor cells was quantified over a 48-h period and normalized to tumor alone. Readings were obtained every 15 min (representative of four separate experiments). * p<0.05, ** p<0.01, *** p<0.001, and **** p<0.0001.\nADCC was measured in a flow cytometry assay by evaluating degranulation via CD107a (lysosomal-associated membrane protein LAMP-1) and intracellular IFNγ production. […] Samples were washed and evaluated in an LSRII flow cytometer (BD Biosciences, San Jose, CA, USA).\nThe ability of cam1615B7-H3 TriKE to mediate NK cell activity against ovarian cancer cells was evaluated. […]"}, "A549 lung cancer cells": {"tested_on": "A549 lung cancer cells", "experiment": "NK cell CD107a / IFNγ flow cytometry against A549", "settings": "normal donor PBMCs, vs controls", "from_the_text": "FIGS. 24A-24F illustrate that B7-H3 TriKE enhances NK cell function against lung tumor targets. FIG. 24A is a graph showing pooled analysis of proportion of NK cells from healthy donors expressing CD107a+ against A549(N=6) tumor targets. FIG. 24B is a graph showing pooled analysis of proportion of NK cells from healthy donors expressing IFNγ against A549(N=6) tumor targets. FIG. 24C is a graph showing pooled analysis of proportion of NK cells from healthy donors expressing CD107a+ against NCI-H322 (N=5) tumor targets. FIG. 24D is a graph showing pooled analysis of proportion of NK cells from healthy donors expressing IFNγ against NCI-H322 (N=5) tumor targets. FIG. 24E is a graph showing pooled proportion of NK cells from healthy donors (black bars) or lung cancer patients (white bars) expressing CD107a+ against NCI-H460 (N=7). FIG. 24F is a graph showing pooled proportion of NK cells from healthy donors (black bars) or lung cancer patients (white bars) expressing IFNγ against NCI-H460 (N=7). ** p<0.01, *** p<0.001, and **** p<0.0001.\nADCC was measured in a flow cytometry assay by evaluating degranulation via CD107a (lysosomal-associated membrane protein LAMP-1) and intracellular IFNγ production. […] Samples were washed and evaluated in an LSRII flow cytometer (BD Biosciences, San Jose, CA, USA). […]"}}, "data": [{"substance": "B7-H3 TriKE: camelid nanobodies targeting CD16 and B7-H3 joined by IL-15 and two linkers; sequence table equates the name with cam1615B7-H3", "values": [{"measurement": "PC-3 spheroid size over time", "setting": "PC-3 spheroids", "result": "reduce PC-3 spheroid size over time"}, {"measurement": "killing of PC3 spheroids", "setting": "PC-3 spheroids; photographs, FIG. 20", "result": "efficient killing of PC3 spheroids"}, {"measurement": "real-time tumor killing of PC-3 cells", "setting": "PC-3 cells", "result": "enhanced efficacy"}]}, {"substance": "cam1615B7-H3: second-generation TriKE: humanized camelid anti-CD16 VHH, human wild-type IL-15, anti-B7-H3 mAb 376.96 scFv; SEQ ID NO:1", "values": [{"measurement": "NK cell degranulation against OVCAR5", "setting": "[1]", "result": "robust"}, {"measurement": "NK cell intracellular IFNγ production against OVCAR5", "setting": "[1]", "result": "robust"}, {"measurement": "NK cell activation against A549", "setting": "A549 lung cancer cells", "result": "significantly and robustly improved NK cell activation"}]}]}
